Experimental data: patent US20100004235A1, “Heterocyclic Substituted, Anellated Pyrazole Derivative and its uses” (BAYER HEALTHCARE AG, priority 2006, published 2010)
pIC50: −log10 of the molar value.

test system: rabbit aorta rings; assay: Vasorelaxant effect in vitro (rabbit aorta rings, phenylephrine-induced contraction); conditions: Oryctolagus cuniculus; concentration reducing the height of the phenylephrine-induced contraction of rabbit aorta rings by 50%; 0.1% DMSO
Experimental: Rabbits are stunned by a blow to the neck and exsanguinated. The aorta is removed, freed from adhering tissue and divided into rings of a width of 1.5 mm. The rings are placed individually under an initial tension in 5 ml organ baths with Krebs-Henseleit solution which is at 37° C., is gassed with carbogen and has the following composition (in each case mM): NaCl: 119; KCl: 4.8; CaCl2×2H2O: 1; MgSO4×7H2O: 1.4; KH2PO4: 1.2; NaHCO3: 25; glucose: 10. The force of contraction is detected with Statham UC2 cells, amplified and digitized via A/D converters (DAS-1802 HC, Keithley Instruments, Munich) and recorded in parallel on chart recorders. Contractions are induced by cumulatively adding increasing concentrations of phenylephrine to the bath. After several control cycles, the substance to be investigated is added in each further run in increasing dosage, and the height of the contraction achieved is compared with the height of the contraction reached in the last preceding one. The concentration necessary to reduce the height of the control value by 50% is calculated from this (IC50 value). The standard application volume is 5 μl, the proportion of DMSO in the bath solution corresponds to 0.1%.

Structure (SMILES)	pIC50
O=c1[nH]c(-c2nn(Cc3ccccc3F)c3ncccc23)ns1 [Example 2, 3-[1-(2-Fluorobenzyl)-1H-pyrazolo[3,4-b]pyridin-3-yl]-1,2,4-thiadiazol-5(4H)-one]	6.35
O=c1[nH]c(-c2nn(Cc3ccccc3F)c3ncccc23)nn1CC(F)(F)F [Example 18, 5-[1-(2-Fluorobenzyl)-1H-pyrazolo[3,4-b]pyridin-3-yl]-2-(2,2,2-trifluoroethyl)-2,4-dihydro-3H-1,2,4-triazol-3-one]	6.21
O=c1[nH]nc(-c2nn(Cc3ccccc3F)c3ncccc23)o1 [Example 3, 5-[1-(2-Fluorobenzyl)-1H-pyrazolo[3,4-b]pyridin-3-yl]-1,3,4-oxadiazol-2(3H)-one]	6.21
Fc1ccccc1Cn1nc(-c2noc(=S)[nH]2)c2cccnc21 [Example 7, 3-[1-(2-Fluorobenzyl)-1H-pyrazolo[3,4-b]pyridin-3-yl]-1,2,4-oxadiazole-5(4H)-thione]	5.96
CC(=O)OCCn1nc(-c2nn(Cc3ccccc3F)c3ncccc23)[nH]c1=O [Example 19, 2-{3-[1-(2-Fluorobenzyl)-1H-pyrazolo[3,4-b]pyridin-3-yl]-5-oxo-4,5-dihydro-1H-1,2,4-triazol-1-yl}ethyl acetate]	5.68
O=c1[nH]c(-c2nn(Cc3ccccc3F)c3ncccc23)no1 [Example 1, 3-[1-(2-Fluorobenzyl)-1H-pyrazolo[3,4-b]pyridin-3-yl]-1,2,4-oxadiazol-5(4H)-one]	5.68

test system: vessel; assay: not given; conditions: literature report; cited from earlier work

Structure (SMILES)	vessel-relaxing effect
Fc1ccccc1Cn1nc(-c2nnn[nH]2)c2cccnc21 [1-(2-fluorobenzyl)-3-(1H-tetrazol-5-yl)-1H-pyrazolo[3,4-b]pyridine]	moderate
